{
  "source": "paper PMC8304516",
  "about": "“A Fungal Defensin Targets the SARS−CoV−2 Spike Receptor−Binding Domain” (Journal of Fungi, 2021)",
  "key": {"SARS−CoV−2 Spike RBD": {"target": "SARS−CoV−2 Spike RBD (Severe acute respiratory syndrome coronavirus 2, UniProt P0DTC2)", "test": "biochemical", "assay_type": "binding", "conditions": "KD; SD"}, "Spike RBD (SARS-CoV-2)": {"target": "Spike RBD (SARS-CoV-2) (UniProt P0DTC2)", "conditions": "cited from earlier work"}, "RBD": {"target": "RBD", "conditions": "binding to RBD; cited from earlier work"}},
  "note": "Bridge positions count the residues as written; N and C are the ends. Peptide text beside a SMILES is read from it.",
  "data": [
    {"compound": "CC[C@H](C)[C@@H]1NC(=O)[C@H](CO)NC(=O)[C@H](CC(C)C)NC(=O)[C@@H]2CSSC[C@@H](C(=O)NCC(=O)N[C@@H](CCCCN)C(=O)N[C@@H](CCC(N)=O)C(=O)O)NC(=O)[C@H]([C@@H](C)O)NC(=O)[C@@H]3CSSC[C@H](NC(=O)[C@H](CCC(=O)O)NC(=O)[C@H](CC(N)=O)NC(=O)[C@H](CCCCN)NC(=O)[C@H](CC(N)=O)NC(=O)[C@H](Cc4ccccc4)NC(=O)[C@@H]4CCCN4C(=O)[C@@H](NC(=O)CNC(=O)[C@H](Cc4ccccc4)NC(=O)CN)CSSC[C@H](NC(=O)[C@H](Cc4ccccc4)NC(=O)CNC(=O)[C@H](Cc4ccccc4)NC(=O)[C@H](CCCCN)NC(=O)[C@H](CCCNC(=N)N)NC(=O)CNC1=O)C(=O)N[C@@H](C)C(=O)NCC(=O)N1CCC[C@H]1C(=O)N[C@@H](CC(C)C)C(=O)N[C@@H](CCCNC(=N)N)C(=O)N[C@@H](C)C(=O)N[C@@H]([C@@H](C)O)C(=O)N3)C(=O)N[C@@H](Cc1c[nH]cn1)C(=O)N[C@@H](C)C(=O)N[C@@H](Cc1c[nH]cn1)C(=O)N2", "note": "[rE8K] (H-GFGCPFNKNECHAHCLSIGRKFGFCAGPLRATCTCGKQ-OH; disulfide 4-25, 11-33, 15-35)", "values": [
      {"measurement": "Kd", "setting": "SARS−CoV−2 Spike RBD", "result": "1900 ± 570", "unit": "nM"}
    ]},
    {"compound": "human beta-defensin 2 (from UniProt O15263)", "values": [
      {"measurement": "Kd", "setting": "Spike RBD (SARS-CoV-2)", "result": 300, "unit": "nM"}
    ]},
    {"compound": "human β−defensin 2 [hBD−2]", "values": [
      {"measurement": "Kd", "setting": "RBD", "result": "~300", "unit": "nM"}
    ]}
  ]
}
